Test results taken from PMC9229894, “In Silico, In Vitro, and Pharmacokinetic Studies of UBMC-4, a Potential Novel Compound for Treating against Trypanosoma cruzi” (Pathogens, 2022).

Key:
[1] = Cytotoxicity, MTT method, HepG2; type: cell-based; conditions: human, HepG2 cells, read-out: LC50 median lethal concentration HepG2
Method: (§1) Cytotoxicity of UBMC-4 was tested in HepG2, CaCo2, and huMDM cell lines according to the effect on cell growth determined by the MTT microenzimatic method, as described by others. Briefly, 2.0 × 10^4 U-937 and huMDM or 2.5 × 10^4 HepG2 and CaCo2 cells were dispensed in 200 µL into each well of a 96-well tissue culture plate containing the corresponding culture medium. Then, 100 µL/well of each compound at a concentration of […] were added and plates were incubated at 37 °C, 5% CO2. After 72 h of incubation, 20 μL of MTT (Sigma-Aldrich, St Louis, MO, USA) were added to each well and plates were incubated for 3 h at 37 °C, 5% CO2. […] The concentration of formazan was determined at 570 nm in a spectrophotometer (Varioskan Flash Multimode Reader, Thermo Scientific, Waltham, MA, USA). […] Cytotoxicity was determined according to the percentages of viability and cell growth inhibition obtained for each compound, bz, doxorubicin, or medium alone. Non-specific absorbance was corrected by subtracting the OD of the blank (culture medium). Percentages of mortality were calculated using equation, as follows: % mortality = 100 − [(O.D. of treated cells)/(O.D. of non-treated cells)] × 100. The half maximal effective concentration (EC50) was calculated by the linear regression model Probit using Graphpad Prism software.

T. cruzi trypomastigotes = assay: Flow cytometry of apoptosis-like markers in trypomastigotes; type: cell-based, Trypanosoma cruzi; conditions: 10 µM; for DNA damage (hypodiploidy), % of trypomastigote population: time not given
Method: Apoptosis-like markers were analyzed by triple staining using 3,3′-dihexyloxacarbocyanine (DiOC6), propidium iodide (PI), and Hoechst from Thermo Fisher Scientific to determine the change of mitochondrial membrane potential (ΔΨm), cell membrane damage, and impairment of cell cycle, respectively. All readings were performed on a BD FACSCanto II 4/2/2 Sys IVD flow cytometer, and data obtained were analyzed using the FlowJo7.6.2 software. Differences between treatments were determined by a two-way ANOVA for multiple comparisons with 95% significance using GraphPad Prism 8. In all cases, 20 µL of parasites (5 × 10^6/mL) were stained per treatment with 300 µL of Hanks’ balanced saline solution (HBSS) and 10 µL of the staining mix containing […], 0.5 µL of 70 nM DiOC6, and 0.5 µL of 10 mg/mL Hoechst. Subsequently, parasites were incubated at room temperature for 15 min until reading.
The same markers mentioned above were used for T. cruzi trypomastigotes. A total of 1 × 10^6 trypomastigotes were centrifuged at 1800 RCF for 5 min to remove the culture medium. Parasites were cultured at […] in PBS or 10% FBS-supplemented DMEM with or without 10 µM UBMC-4, 10 µM chloroquine, and 10 µM UBMC-4/chloroquine for 2 h and 5 h. All experiments were compared to a culture setup using bz as control compound. Three biological replicates and three experimental replicates were applied to data collected at each time point for experimental conduction of every portion of the study. In all cases, ANOVA was applied for multiple comparisons after determining that data were normal.

[2] = Toxicity / tolerability in mice; type: in vivo
[3] = Cytotoxicity, MTT method, CaCo2; type: cell-based; conditions: human, Caco-2, read-out: LC50 median lethal concentration CaCo2
Method: as §1

Oc1ccc(-c2nc(-c3ccc4sc5ccccc5c4c3)c(-c3ccccc3)[nH]2)cc1 [UBMC-4, 4-(4-dibenzo-[b,d]-thien-2-yl-5-phenyl-1H-imidazol-2-yl)phenol]
CC50 at 72 h [1]: > 40 µM | mitochondrial membrane potential change (T. cruzi trypomastigotes; normal nutritional conditions, 2 h): remained intact (no hyper- or depolarization) | cell membrane permeability, % of trypomastigote population (T. cruzi trypomastigotes; normal nutritional conditions, 5 h): 2.2% | DNA damage (hypodiploidy), % of trypomastigote population (T. cruzi trypomastigotes; normal nutritional conditions): 23% | Ψm depolarization, % of trypomastigotes (T. cruzi trypomastigotes; nutritional stress, 2 h): 32% | cell membrane permeability, % of trypomastigote population (T. cruzi trypomastigotes; nutritional stress, 5 h): 36% | Ψm depolarization, % of trypomastigotes (T. cruzi trypomastigotes; nutritional stress, 5 h): 40% | DNA damage (hypodiploidy), % of trypomastigote population (T. cruzi trypomastigotes; nutritional stress): 54% | tolerability in preliminary toxicity study ([2]; 200 mg/kg administered once and 100 mg/kg every 24 h for 30 days): significant tolerability | acute toxicity ([2]; mice of the pharmacokinetic assay, 200 mg/kg oral single dose): did not exhibit acute toxicity | death of mice ([2]; mouse, in vivo, po, 200 mg/kg): did not cause death to any of the mice | CC50 at 72 h [3]: > 40 µM
